Tested on: FRDA fibroblasts stressed by addition of L-buthionine-(S,R)-sulfoximine (BSO)
Assay: Rescue of BSO-stressed human dermal fibroblasts from Friedreich's Ataxia patients (Calcein AM viability)
Format: cell-based
Settings: FRDA fibroblasts GM04078, 1 mM BSO, 48 h, average, compounds of the invention
Method: An initial screen was performed to identify compounds effective for the amelioration of redox disorders. Test samples, 4 reference compounds (idebenone, decylubiquinone, Trolox and alpha-tocopherol), and solvent controls were tested for their ability to rescue FRDA fibroblasts stressed by addition of L-buthionine-(S,R)-sulfoximine (BSO), as described in Jauslin et al., Hum. Mol. Genet. 11(24):3055 (2002), Jauslin et al., FASEB J. 17:1972-4 (2003), and International Patent Application WO 2004/003565. […] This specific BSO-mediated cell death can be prevented by administration of antioxidants or molecules involved in the antioxidant pathway, such as alpha-tocopherol, selenium, or small molecule glutathione peroxidase mimetics. However, antioxidants differ in their potency, i.e. the concentration at which they are able to rescue BSO-stressed FRDA fibroblasts.
MEM (a medium enriched in amino acids and vitamins, catalog no. 1-31F24-I) and Medium 199 (M199, catalog no. 1-21F22-I) with Earle's Balanced Salts, without phenol red, were purchased from Bioconcept. Fetal Calf Serum was obtained from PAA Laboratories. Basic fibroblast growth factor and epidermal growth factor were purchased from PeproTech. Penicillin-streptomycin-glutamine mix, L-buthionine (S,R)-sulfoximine, (+)-alpha-tocopherol, decylubiquinone, and insulin from bovine pancreas were purchased from Sigma. Trolox (6-Hydroxy-2,5,7,8-tetramethylchromane-2-carboxylic acid) was obtained from Fluka. Idebenone was obtained from Chemo Iberica. Calcein AM was purchased from Anaspec. Cell culture medium was made by combining 125 ml M199 EBS, 50 ml Fetal Calf Serum, 100 U/ml penicillin, 100 microgram/ml streptomycin, 2 mM glutamine, 10 microgram/ml insulin, 10 ng/ml EGF, and 10 ng/ml bFGF; MEM EBS was added to make the volume up to 500 ml. A 10 mM BSO solution was prepared by dissolving 444 mg BSO in 200 ml of medium (Invitrogen, Carlsbad, Ca.) with subsequent filter-sterilization. During the course of the experiments, this solution was stored at +4° C. […]

SMILES: CCOC(=O)CCC(C)(O)CCC1=C(C)C(=O)C(C)=C(C)C1=O (stereo not drawn)
- EC50: 0.275 µM

SMILES: CC1=C(C)C(=O)C(CCC2(C)CCC(=O)O2)=C(C)C1=O (stereo not drawn)
- EC50: 0.27 µM

SMILES: CC1=C(C)C(=O)C(CCC(C)(O)CCC(N)=O)=C(C)C1=O (stereo not drawn)
- EC50: 0.07 µM
